For this data set the following is noted: rat, in vivo, iv, 10 mg/kg.

Data on one substance can be found in PMC4899770, “Core-shell nanocarriers with high paclitaxel loading for passive and active targeting” (Scientific Reports, 2016).

Description: Blood samples (0.5 mL) were collected from rat orbit at the time points of 0.083, 0.25, 0.5, 1, 2, 4, 6 and 8 h. The blood samples were centrifuged for 10 min at 5,000 rpm in a desktop centrifuge (Anke TGL-16G, Shanghai, China), and the plasma was separated and transferred to microcentrifuge tubes. The PTX in plasma was measured using an HPLC system after extraction with ethylether and redissolved in methanol. The pharmacokinetic parameters of PTX were calculated using a non-compartmental model with Kinetica 5.0 (Thermo Fisher Scientific Inc., MA, USA).
Two hundred microliter of plasma samples were mixed with 10 µL of internal standard (100 ng/mL diazepam in methanol), followed by vortexing for 60 s. Following mixing into 800 µL of ethylether, the sample was vortexed for 2 min and centrifuged at 12,700 g for 10 min. Subsequently, the supernatant was collected and dried under a stream of nitrogen. The residual was redisolved in 100 µL of mobile phase, votexed for 3 min and centrifuged at 10,625 g for 5 min^7. Finally, 20 µL of the supernatant was injected into the HPLC system for analysis under the conditions described below.
PTX measurement was performed on a LC-10AT HPLC system (Shimadzu, Japan). It was separated at 30 °C using an ODS-C18 column (4.6 mm × 250 mm, Diamonsil, China). The samples were eluted with acetonitrile and water (54: 46, v/v) at the flow rate of 1.0 mL/min and monitored at 227 nm^8.

Turning to Taxol^®, the “AUC0-∞” value was determined as 4380 ± 3570 ng·h/mL, the CL turned out to be 1.68 ± 1.19 L/h, the MRT came to 1.78 ± 0.88 h and the “k (elimination rate constant)” value stood at 2.99 ± 2.88 h⁻¹.
